30 compounds from patent US20220348569A1 (priority 2021, published 2022) can be followed below.

Data set [1] is described as follows: in vivo. The settings on record: female, rat; for AUC(0-t): Sprague Dawley.
The conditions of data set [2]: rat, in vivo.
The subject of data set [3] is MERS-CoV pseudovirus. Nature of the data set: microbe, parasite or virus in culture. The following applies: Middle East respiratory syndrome-related coronavirus, MRC5. The data set is classed as cell-based.
Data set [4] concerns SARS-CoV pseudovirus. As to the kind of experiment: microbe, parasite or virus in culture. The class given is cell-based. The following applies: Severe acute respiratory syndrome coronavirus, A549-ACE2.
The subject of data set [5] is SARS-CoV-2 pseudovirus. As to the kind of experiment: microbe, parasite or virus in culture. The class given is cell-based. The following applies: for IC50: Severe acute respiratory syndrome-related coronavirus, read-out: IC50s against SARS-CoV-2 pseudovirus over the cell lines.
The test system of data set [6] is SARS-CoV pseudovirus. As to the kind of experiment: microbe, parasite or virus in culture. The settings on record: Severe acute respiratory syndrome coronavirus, HT-1080. The data set is classed as cell-based.
In data set [7] the test system is MERS-CoV pseudovirus. As to the kind of experiment: microbe, parasite or virus in culture. The data set is classed as cell-based. The following applies: Middle East respiratory syndrome-related coronavirus, Huh-7.
The subject of data set [8] is SARS-CoV-2 full Spike wild-type (Wuhan-Hu-1) mediated cell-to-cell fusion. As to the kind of experiment: cells. The following applies: for inhibition at 0.25 µM: Severe acute respiratory syndrome coronavirus 2, Jurkat, at 250 nM, read-out: inhibitory activity of SARS-CoV-2 mediated cell-to-cell fusion. The class given is cell-based.
Data set [9] addresses SARS-CoV-2 spike (active trimer) His-tag (Severe acute respiratory syndrome coronavirus 2, UniProt P0DTC2). The class given is binding.
The test system of data set [10] is SARS-CoV-2 (US_WA-1/2020). The class given is cell-based.
Data set [11] deals with SARS-CoV pseudovirus. Nature of the data set: microbe, parasite or virus in culture. The class given is cell-based. The following applies: Severe acute respiratory syndrome coronavirus, 293T/ACE2.
Data set [12] in a line: in vitro. The following applies: human.
Data set [13] relates to SARS-CoV pseudovirus. The class given is cell-based.
The test system of data set [14] is MERS-CoV pseudovirus. Nature of the data set: microbe, parasite or virus in culture. The following applies: Middle East respiratory syndrome-related coronavirus, read-out: IC50 against MERS-CoV pseudovirus. The data set is classed as cell-based.
Data set [15] deals with SARS-CoV-2 pseudovirus. Nature of the data set: microbe, parasite or virus in culture. The settings on record: Severe acute respiratory syndrome-related coronavirus, A549-ACE2. The data set is classed as cell-based.
Data set [16] in a line: in vitro. The settings on record: human. The source holds these as a separate data set.
Data set [17] in a line: in vitro. The following applies: human. The source holds these as a separate data set.
A short description of data set [18]: in vitro. The settings on record: human, Caco-2, pH 7.4.
For data set [19] the following is noted: both, human, microsomes.
The nature of data set [20]: in vitro. The settings on record: both, human, plasma.
Setting [21] is: female, Sprague Dawley, iv, 5 mg/kg.

“Also recorded” adds a separate entry of the source. Where two headings read alike, the source gives them in different places.

In the case of `O=C(O)c1cccc(-c2ccc(/C=C3\SC(=S)N(CCc4ccccc4)C3=O)o2)c1` [Compound 2], the exposure AUC(0-t) was found to be 17100 ng·h/mL in data set [1] (iv, 5 mg/kg) and 319 ng·h/mL in data set [1] (po, 10 mg/kg). The compound further yielded a half-life in [1] (Sprague-Dawley, iv, 5 mg/kg) of 210 to 234 min. The C0 in data set [2] (setting [21]) came out at 1710.87 ng/mL. In addition, in data set [2] (setting [21]), the CLobs is listed as 0.00027 mg/kg/(ng/mL)/hr. The MRT0-inf_obs amounted to 5.09 h in data set [2] (setting [21]) and 7.28 h in [2] (female, Sprague-Dawley, po, 10 mg/kg). Moreover, the Vss_obs in [2] (setting [21]) was 0.0014 mg/kg/(ng/mL); in data set [2] (female, Sprague Dawley, po, 10 mg/kg), 0 mg/kg/(ng/mL). This compound also yielded a F % in [2] (female, Sprague-Dawley) of 0.9%. Further, the Vz/F_obs in data set [2] (po, 10 mg/kg) is on record as 0.1759 mg/kg/(ng/mL). Also, the IC50 is 76.5 to 123 nM in [3]; 98 to 157 nM in data set [4]; 22.8 to 58 nM in data set [5]; 19.3 to 39 nM in data set [6]; 95 to 158 nM in [7]; 13.8 to 17 nM in data set [11]. For the same compound, the “antiviral activity against SARS-CoV-2 pseudovirus (in words)” value (“antiviral activity” below) in data set [5] is given as “low nanomolar activity; also recorded: best antiviral potency; also recorded: low nM IC50”. In addition, the “inhibition of SARS-CoV-2 mediated cell-to-cell fusion (in words)” value (from here on “inhibition … (in words)”) in data set [8] is recorded as “potently inhibited the cell-to-cell fusion even at the lowest dose”. The inhibition at 0.25 µM in data set [8] is 62 to 79%. The compound further registered a ka in data set [9] of 872 M⁻¹ s⁻¹. Further, the IC100 in [10] stood at 1.25 µM.
In turn, `O=C(O)c1cc(-c2ccc(/C=C3\SC(=S)N(CCc4ccccc4)C3=O)o2)ccc1F` [Compound 3] registered a CC50 in data set [12] of 45 ± 5 µM. The IC50 is 76.5 to 123 nM in data set [3]; 98 to 157 nM in data set [4]; 60.1 to 120 nM in [5]; 19.3 to 39 nM in [6]; 95 to 158 nM in data set [7]; 13.8 to 17 nM in data set [11]. Further, in data set [5], the “antiviral activity” value is “somewhat reduced activity”. In addition, the “selectivity index (SI, ratio CC50/IC50) over the cell lines” value in data set [5] is given as 750->1563. Besides, the IC100 in data set [10] came out at 2.5 µM.
Turning to `Cc1ccc(-c2ccc(/C=C3\SC(=S)N(CCc4ccccc4)C3=O)o2)cc1C(=O)O` [Compound 4], the values for the IC50 in [3], in [5] and in [7] were 76.5 to 123 nM, 26 to 73 nM and 95 to 158 nM, respectively. Besides, the “antiviral activity” value in data set [5] is listed as “low nanomolar activity; also recorded: excellent antiviral activity”. Further, the “inhibition … (in words)” value in [8] is recorded as “potently inhibited the cell-to-cell fusion even at the lowest dose”. For the same compound, the inhibition at 0.25 µM in [8] was 62 to 79%. The IC100 in data set [10] was 2.5 µM.
Consider `Cc1c(C(=O)O)cccc1-c1ccc(/C=C2\SC(=S)N(CCc3ccccc3)C2=O)o1` [Compound 5], for which the “activity against SARS-CoV pseudovirus (in words)” value in data set [13] is reported as “poor activity”. Moreover, the IC50 in [14] and in data set [15] was > 2000 nM each time. Also, in data set [8], the “inhibition … (in words)” value was “only inhibited the SARS-CoV-2 mediated cell-to-cell fusion at the higher dose (4 μM)”. For the same compound, in data set [10], the IC100 was >10 µM.
Regarding `CCc1ccc(-c2ccc(/C=C3\SC(=S)N(CCc4ccccc4)C3=O)o2)cc1C(=O)O` [Compound 6], in data set [12], the CC50 amounted to 40 ± 6 µM. Also, the “antiviral activity” value in data set [5] is given as “slightly lower antiviral activity”. In [14], the IC50 was < 1000 nM. Further, the IC100 in data set [10] was >10 µM.
Regarding `O=C(O)c1cccc(-c2ccc(/C=C3\SC(=S)N(CCc4ccccc4)C3=O)o2)c1F` [Compound 7], the IC50 in data set [14] is < 1000 nM. The same compound showed an IC100 in data set [10] of 5 µM.
For `O=C(O)c1cc(-c2ccc(/C=C3\SC(=S)N(CCc4ccccc4)C3=O)o2)ccc1Br` [Compound 8], the “antiviral activity” value in [5] is reported as “excellent antiviral activity”. Further, in data set [14], the IC50 is < 1000 nM. Also, the IC100 in data set [10] amounted to 5 µM.
`Cc1c(C(=O)O)cncc1-c1ccc(/C=C2\SC(=S)N(CCc3ccccc3)C2=O)o1` [Compound 9]: the IC100 in [10] worked out at 2.5 µM.
Regarding `O=C1C(=Cc2ccc(-c3ccc(Cl)cc3)o2)SC(=S)N1CCc1ccccc1` [Compound 10, 5-((5-(4-chlorophenyl)furan-2-yl)methylene)-3-phenethyl-2-thioxothiazolidin-4-one], in data set [5], the “antiviral activity” value is “no antiviral potency at the highest dose tested” and the IC50 was > 2000 nM.
As for `NS(=O)(=O)c1ccc(-c2ccc(/C=C3\SC(=S)N(CCc4ccccc4)C3=O)o2)cc1` [Compound 11], in [12], the CC50 came out at 13.3 ± 2 µM. In data set [7], this compound had an IC50 of 13.2 ± 3.7 nM.
For the compound `O=C1NC(=S)S/C1=C\c1ccc(-c2ccc(Cl)c(C(=O)O)c2)o1` [Compound 12], the “antiviral activity” value in [5] is recorded as “did not display any activity at the highest dose tested”.
`CCN1C(=O)/C(=C/c2ccc(-c3cccc(C(=O)O)c3)o2)SC1=S` [Compound 13]: the CC50 in data set [12] was 74 ± 3 µM; in [16], > 100 µM.
For `COCCN1C(=O)/C(=C/c2ccc(-c3ccc(Cl)c(C(=O)O)c3)o2)SC1=S` [Compound 14] the same measures were 81 ± 1 µM and > 100 µM.
The matching figures for `CN1C(=O)/C(=C/c2ccc(-c3cccc(C(=O)O)c3)o2)SC1=S` [Compound 15]: 53 ± 8 µM and > 100 µM.
Regarding `O=C1/C(=C/c2ccc(-c3ccccc3)o2)SC(=S)N1CCc1ccccc1` [Compound 16], the CC50 in [12] stood at 75 ± 7 µM; in data set [16], 40 ± 2 µM.
For `C=CCN1C(=O)/C(=C/c2ccc(-c3cccc(C(=O)O)c3)o2)SC1=S` [Compound 17] the same measures were > 100 µM and > 100 µM.
Consider `O=C(O)c1cc(-c2ccc(/C=C3\SC(=S)N(C4CCCCC4)C3=O)o2)ccc1Cl` [Compound 18], for which the CC50 in data set [12], in data set [17] and in [16] was > 100 µM throughout. Further, the “antiviral activity” value in [5] is given as “excellent antiviral activity; also recorded: low nM IC50”. Further, in [7], the IC50 is 10.5 ± 0.9 nM.
Regarding `C=CCN1C(=O)/C(=C/c2ccc(-c3cc(C(=O)O)cc(C(=O)O)c3)o2)SC1=S` [Compound 19], the CC50 in [12] and in data set [16] was > 100 µM throughout.
As to `C=CCN1C(=O)/C(=C/c2ccc(-c3cccc(C(=O)O)c3C)o2)SC1=S` [Compound 20], the CC50 is > 100 µM in [12], 84 ± 4 µM in data set [17] and > 100 µM in [16]. Further, the IC50 in data set [7] was 340 ± 112 nM.
For `O=C1NC(=S)S/C1=C\c1ccc(-c2ccc(C(=O)O)c(Cl)c2)o1` [Compound 21], the CC50 in [12] and in data set [16] was > 100 µM in each case.
Consider `Cc1ccc(-c2ccc(/C=C3\SC(=S)N(CC(C)C)C3=O)o2)cc1C(=O)O` [Compound 22], for which the CC50 in data set [12] amounted to 68 ± 4 µM; in [16], 70 ± 4 µM.
Regarding `C#CCN1C(=O)/C(=C/c2ccc(-c3ccc(Cl)c(C(=O)O)c3)o2)SC1=S` [Compound 23], in [5], the “antiviral activity” value is given as “did not display any activity at the highest dose tested”.
On to `CCN1C(=O)/C(=C/c2ccc(-c3ccc(Cl)c(C(=O)O)c3)o2)SC1=S` [Compound 24], for which the CC50 was 78 ± 3 µM in [12], ~100 µM in data set [17] and > 100 µM in data set [16]. In addition, the IC50 in data set [7] is 88 ± 13 nM.
`O=C(O)c1cccc(-c2ccc(/C=C3\SC(=S)N(C4CCCCC4)C3=O)o2)c1` [Compound 25]: the CC50 in data set [12], in [17] and in [16] was > 100 µM throughout. Besides, the “antiviral activity” value in data set [5] is on record as “displayed antiviral potency”. Also, the IC50 in [7] came out at 247 ± 47 nM.
For `N=C1NC(=O)/C(=C/c2ccc(-c3ccc(Cl)c(C(=O)O)c3)o2)S1` [Compound 26], the CC50 in data set [12] is > 100 µM.
As for `CN1C(=O)/C(=C/c2ccc(-c3cccc(C(=O)O)c3)o2)SC1=S` [Compound 27], the CC50 in data set [17] was > 100 µM. The compound also showed an IC50 in [7] of 96 ± 14 nM.
Consider `O=C1NC(=S)S/C1=C\c1ccc(-c2ccc(C(=O)O)cc2)o1` [Compound 28], for which the “antiviral activity” value in data set [5] was “loses the inhibitory activity; also recorded: showed no inhibition”.
`CC(C)NCC(O)COc1cccc2ccccc12` (centres unmarked) [Propranolol] came in with a Papp in data set [18] of 19.7 ×10⁻⁶ cm/s.
`C[C@]12CC[C@H]3[C@@H](CCC4=CC(=O)CC[C@@]43C)[C@@H]1CC[C@@H]2O` [Testosterone, reference compound] came in with a half-life in data set [19] of 11.3 min.
The compound `CC(=O)CC(c1ccccc1)c1c(O)c2ccccc2oc1=O` (centres unmarked) [Warfarin] gave a fraction unbound in data set [20] of 0.018.

The term AUC(0-t) denotes exposure summed from dosing to a finite time, without extrapolation to infinity. Lower therefore signals low exposure. A word on the half-life: it is the time in which the quantity being followed falls by half. A low value points to rapid decline. The Papp is a coefficient for how fast a substance crosses the barrier. What is called fraction unbound is free concentration divided by total concentration.
